Key:
[1] = tested on: right Purkinje fiber; test: Effect on myocardial action potential duration (APD75) in isolated, perfused Purkinje fiber; assay type: cell-based, mongrel adult dog; conditions: Canis lupus familiaris, 20 min, 20 minutes' incubation, field stimulus of 1 Hz, 37°C, read-out: T (%), percent prolongation of myocardial action potential duration (APD75)
Method: After a mongrel adult dog was anesthetized by the intravenous administration of 30 mg/kg of pentobarbital, the heart was excised therefrom. Then, the right Purkinje fiber was isolated in a nutrient fluid (i.e., Tyrode's solution). The isolated right Purkinje fiber was fixed in a constant-temperature bath (20 ml) at 37°C and perfused with Tyrode's solution. In this state, the myocardial action potential duration (APD75) was measured before and after the administration of each test compound. Then, the percent prolongation of myocardial action potential duration (T) after the administration of each test compound was calculated according to the following equation. T(%) =(B - A)/(A)x 100 [formula] where A: APD75 before administration B: APD75 after administration
APD75 was measured as follows: A field stimulus of 1 Hz was given to the right Purkinje fiber, and any change in action potential was detected by a glass microelectrode (10-20 MΩ) penetrated into a Purkinje fiber and monitored on an oscilloscope via an amplifier. The waveform on the oscilloscope was analyzed by means of a computer, and the duration beween the point of action potential generation adn the point of 75% repolarization was defined as APD75. The test compounds shown in Table 2 were separately added to the perfusing nutrient fluid, and after 20 minutes' incubation was recorded. This test was carried out according to the method of Sato et al. [S. Sato, K. Hashimoto; Arzneimittel Forschung, 34(1), 3a, 376-380(1984)].

[2] = Stability test in acid aqueous solution (Solution 1 of the Japanese Pharmacopoeia, pH 1.2), remaining compound by HPLC; assay type: physicochemical; conditions: Solution 1 (pH 1.2), 2 mg/ml, stirred at 37°C, HPLC
Method: In order to confirm the stability of the compounds of the present invention in an acid aqueous solution, stability was tested on the fumarate of 6-[3-[N-[2-(4-methanesulfonylaminophenyl)ethyl]-N-propylamino]propyl]-1,3-dimethyl-2,4(1H,3H)pyrimidinedione (the compound obtained in Example 118; hereinafter referred to as compound A) which is a compound in accordance with the present invention, and 1,3-dimethyl-6-{2-[N-ethyl-3-phenylpropylamino]ethylamino}2,4(1H,3H)-pyrimidinedione (hereinafter referred to as compound B) which is a pyrimidinedione derivative having a substituted amino group at the 6-position of the pyrimidinedione ring as described in European Publication No. 454,498 A2 and was used for purposes of comparison.
Solution 1 (pH 1.2) described in the Japaense Pharmacopoeia was prepared by adding 7.0 ml of hydrochloric acid and water to 2.0 g of sodium chloride so as to give the final volume of 1,000 ml.
Compounds A and B were dissolved in Solution 1 at a concentration of 2 mg/ml and the resulting solutions were stirred at 37°C. Thus, changes with time in the percentages of the remaining compounds A and B were examined by HPLC.

[3] = tested on: ventricular muscle; test: Effect on ventricular muscle refractory period (ERP) under ventricular pacing in anesthetized dog; assay type: in vivo, mongrel adult dog; conditions: ventricular pacing at 400 msec
Method: According to the method described below, the refractory period was measured before and after the intravenous administration of each test compound, and the percent prolongation of refractory period (ERP) was calculated according to the following equation. ERP prolongation (%) =(W - Y)/(Y)x 100 [formula] where W: Refractory period after administration Y: Refractory period before administration
After a mongrel adult dog was anesthetized by the intravenous (i.v.) administration of 30 mg/kg of pentobarbital, the chest was opened on the right side. Then, a set of silver-silver chloride electrodes spaced by 3 mm was sewn on the right ventricle, and […] electrical stimuli (a duration of 4 msec, and a current intensity equal to twice the threshold) were given at an interval of 400 msec. Thereafter, a small amount of alcohol was injected into a sinus artery in order to destroy the pacemaker activity, and the ventricular refractory period (ERP) was measured under ventricular pacing. Specifically, one train comprised a series of stimuli having an interval of 400 msec, and the interval between trains was usually 400 msec. During measurement of the refractory period, this interval was shortened by decrements of 10 msec, and the interval between trains at which the response to the first stimulus of the train disappeared was regarded as the refractory period. These electrical stimuli were given by programmed stimulation using a heart stimulation apparatus (Diamedical Co., Ltd.; DHM-226-3).

[4] = Toxicity test (mortality rate 24 hours after administration); conditions: mouse, in vivo, ip; 100 mg/kg (i.p.); twenty-four hours after administration; groups of three mice
Method: The test compounds were separately administered to mice (ddy strain, male). The administration of each compound was carried out intraperitoneally (i.p.) in a dose of 100 mg/kg. Twenty-four hours after the administration, the mortality rate of the mice (in groups of three) was examined.

Work on `CCCN(CCCc1cc(=O)n(C)c(=O)n1C)CCc1ccc(NS(C)(=O)=O)cc1` [Example 118, 6-[3-[N-[2-(4-methanesulfonylaminophenyl)ethyl]-N-propylamino]propyl]-1,3-dimethyl-2,4(1H,3H)pyrimidinedione] yielded an activation at 1 µM ([1]; Dose 1 x 10^-6 M) of 16%, an activation at 10 µM ([1]; Dose 10 x 10^-6 M) of 54% and an activation at 100 µM ([1]; Dose 100 x 10^-6 M) of 81%. For the same molecule, the “Percentage of remaining compound” value ([2]; 0 hr) was 100%, the remaining at 3 h ([2]; jp solution 1, 3 hr, read-out: Percentage of remaining compound) was 100% and the remaining at 6 h ([2]; jp solution 1, 6 hr, read-out: Percentage of remaining compound) was 99%. For the same molecule, the “ERP (%), percent prolongation of refractory period” value (“ERP (%), percent prolongation” for short) ([3]; Dose 0.1 mg/kg i.v.) was 6.7%, the “ERP (%), percent prolongation” value ([3]; Dose 0.3 mg/kg i.v.) was 20.0% and the “ERP (%), percent prolongation” value ([3]; Dose 1.0 mg/kg i.v.) was 33.3%. The mortality at 24 h [4] was 0%.

From patent publication EP0697407B1, “Pyrimidinedione derivatives and antiarrhythmic compositions containing same” (MITSUI TOATSU CHEMICALS, Inc., priority 1994, dated 1996)
